{"source": "patent US20260265227A1", "about": "“AMIDE PRODRUGS AND USES THEREOF” (Autobahn Therapeutics, Inc., priority 2022, published 2026)", "molecular_target": "T1, recombinant human FAAH (rhFAAH) (Homo sapiens, UniProt O00519)", "T1 construct": "purchased Cayman Chemical (Ann Arbor, MI, USA)", "T1 sequence (O00519 1-579)": "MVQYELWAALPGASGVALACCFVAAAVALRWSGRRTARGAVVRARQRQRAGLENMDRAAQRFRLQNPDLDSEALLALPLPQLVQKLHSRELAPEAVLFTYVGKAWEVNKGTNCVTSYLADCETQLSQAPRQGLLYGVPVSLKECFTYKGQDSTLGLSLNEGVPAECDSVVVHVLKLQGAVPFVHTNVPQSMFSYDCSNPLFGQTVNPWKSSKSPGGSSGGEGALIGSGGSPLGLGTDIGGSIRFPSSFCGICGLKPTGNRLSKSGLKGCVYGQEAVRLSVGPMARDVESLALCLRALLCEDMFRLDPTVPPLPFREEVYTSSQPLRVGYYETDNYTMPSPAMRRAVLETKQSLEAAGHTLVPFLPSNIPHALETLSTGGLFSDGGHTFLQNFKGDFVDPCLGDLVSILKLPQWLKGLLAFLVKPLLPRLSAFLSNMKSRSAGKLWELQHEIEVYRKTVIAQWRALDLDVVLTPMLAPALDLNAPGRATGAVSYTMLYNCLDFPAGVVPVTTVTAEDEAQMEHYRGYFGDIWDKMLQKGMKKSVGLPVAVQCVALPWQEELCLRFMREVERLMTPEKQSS", "assay": "FAAH Substrate Evaluation (formation of acid metabolite from amide prodrug)", "assay_type": "biochemical", "settings": "0.5 ng/μL rhFAAH, 1 μM test compound, Tris-EDTA buffer pH 8.0, 0.1% BSA, room temperature, 0-60 minutes, LC-MS/MS", "procedure": "Purified recombinant human FAAH (rhFAAH) was purchased from Cayman Chemical (Ann Arbor, MI, USA). The total volume for each incubation was 400 μL containing a final 0.5 ng/μL rhFAAH, 1 μM test compound, 1.25% ethanol or 1 μM PF-3845 (FAAH inhibitor), and 0.1% bovine serum albumin in Tris-EDTA buffer at pH 8.0). The positive control was LL-341001. The incubation was conducted at the room temperature. At 0, 5, 15, 30 and 60 minutes, an aliquot of 30 μL reaction mixtures was removed and mixed with 300 μL acetonitrile containing 5 ng/mL terfenadine and 10 ng/ml tolbutamide as internal standards to quench the reaction. The resulting mixture was centrifuged at 4000 rpm, 4° C. for 15 minutes, and 100 μL supernatant was ready for LC-MS/MS analysis to measure the formation of acid metabolite.\nAcquity Ultra Performance LC system from Waters was used for sample analysis. The chromatography was performed on a reverse phase Kinetex 2.6 μm C18 column, 2.1×30 mm, 100 Å. The mobile phase A comprised of 0.1% formic acid in water and mobile phase B comprised of 0.1% formic acid in acetonitrile with a 2-min run time at the flow rate of 0.8 mL/min for the acid metabolite from positive control or a 1.5 min run time at the flow rate of 0.9 mL/min for the acid metabolite of test compounds. The mass spectrometer (API-5500 and API Q Trap 4000 Applied Biosystems/MDS SCIEX Instruments, Framingham, MA, USA) was operated under ESI positive or negative ion MRM mode.\nThe formation of acid metabolite was monitored and quantified using one calibration point of 1 μM. The observed rate constant (ke) for the acid metabolite formation was calculated by plotting the metabolite concentration versus time of incubation with the slope being ke and is shown in Table 1.", "data": [{"smiles": "C[C@H](CO)NC(=O)C1CN(CC2=Cc3ccc(OCCCC(F)(F)F)cc3C[C@@H]2C)C1", "note": "[Compound 14, N—((R)-1-hydroxypropan-2-yl)-1-(((S)-3-methyl-6-(4,4,4-trifluorobutoxy)-3,4-dihydronaphthalen-2-yl)methyl)azetidine-3-carboxamide]", "values": [{"measurement": "ke (observed rate constant for the acid metabolite formation)", "result": "B (ke is less than 1.0 and more than 0)"}]}]}
